This note sets out measurements from PubChem BioAssay (NCI).

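Results reflect a 48-hour exposure of cells in 96-well plates to compound at five concentrations. GI50 is the concentration that inhibits growth by half. TGI denotes the concentration required for complete inhibition of growth.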

Test systems include CCRF-CEM leukemia; HCT-15 colon; SF-268 CNS; SK-OV-3 ovarian; SNB-75 CNS; SR leukemia; TK-10 renal; UO-31 renal.
Holding throughout (assay): inhibition of tumour cell growth, NCI panel, 48 h

With `CC1=C2[C@@H](CC1)[C@]1(C)O[C@@](C(C)C)(C[C@H]1OC(=O)CO)[C@H]2OC(=O)CCCc1ccccc1`, the GI50 was 4.65 µM in the experiment on CCRF-CEM leukemia; 9.02 µM in the experiment with HCT-15 colon; 11.5 µM in the experiment on SF-268 CNS; 16.6 µM with SK-OV-3 ovarian; 2.08 µM with SNB-75 CNS; 11.3 µM with SR leukemia. The GI50 with TK-10 renal was 18.6 µM; in the experiment on UO-31 renal, 3.36 µM. For the same molecule, the TGI in the experiment on CCRF-CEM leukemia was determined as 34.7 µM; in the experiment on HCT-15 colon, 22.2 µM; in the experiment on SF-268 CNS, 32.6 µM; in the experiment on SK-OV-3 ovarian, 30.6 µM; in the experiment with SNB-75 CNS, 18.5 µM; with SR leukemia, 36.6 µM. Also, the TGI stood at 32.8 µM with TK-10 renal and 14.7 µM in the experiment on UO-31 renal.

Turning to `O=C1OC(c2ccc(Cl)cc2)=N/C1=C\c1ccccc1`, the TGI with CCRF-CEM leukemia, in the experiment with HCT-15 colon, in the experiment on SF-268 CNS, with SK-OV-3 ovarian, in the experiment with SNB-75 CNS and with SR leukemia was above 100 µM each time. Further, the TGI in the experiment with TK-10 renal and with UO-31 renal was above 100 µM in each case.

On to `CC(C)=Cc1cccc2[nH]c(O)c(N=Nc3ccc(S(N)(=O)=O)cc3)c12`, for which the GI50 with CCRF-CEM leukemia was 1.23 µM; in the experiment on HCT-15 colon, 4.32 µM; with SF-268 CNS, 12.4 µM; in the experiment on SK-OV-3 ovarian, 14.5 µM; with SNB-75 CNS, above 8.54 µM; in the experiment with SR leukemia, 0.593 µM. For the same molecule, the values for the GI50 with TK-10 renal and in the experiment on UO-31 renal were 2.29 µM and above 25 µM, respectively. Moreover, the TGI with CCRF-CEM leukemia, in the experiment with HCT-15 colon, with SF-268 CNS, with SK-OV-3 ovarian, with SNB-75 CNS and in the experiment with SR leukemia was above 25 µM each time. The TGI in the experiment on TK-10 renal and in the experiment with UO-31 renal was above 25 µM throughout.

For the molecule `Cc1cc(=O)oc2cc3oc(N(C)c4ccccc4)nc(=O)c3cc12`, the TGI in the experiment on CCRF-CEM leukemia, with HCT-15 colon, in the experiment with SF-268 CNS, in the experiment with SK-OV-3 ovarian, in the experiment on SNB-75 CNS and with SR leukemia was above 100 µM throughout. The TGI in the experiment on TK-10 renal and in the experiment with UO-31 renal was above 100 µM throughout.

`C=CCOc1ccc(N)c([N+](=O)[O-])c1`: the TGI with CCRF-CEM leukemia, in the experiment with HCT-15 colon, in the experiment on SF-268 CNS, in the experiment on SK-OV-3 ovarian, in the experiment on SNB-75 CNS and with SR leukemia was above 100 µM in each case. Also, the TGI in the experiment on TK-10 renal and in the experiment with UO-31 renal was above 100 µM in each case.

With `CCCCc1n(Cc2ccc3ccccc3n2)cc[n+]1Cc1ccc2ccccc2n1`, the GI50 was 1.59 µM in the experiment with CCRF-CEM leukemia; 14.8 µM in the experiment with HCT-15 colon; 2.18 µM in the experiment with SF-268 CNS; 2 µM in the experiment with SK-OV-3 ovarian; 0.889 µM in the experiment with SNB-75 CNS; 0.537 µM in the experiment on SR leukemia. Besides, the GI50 in the experiment with TK-10 renal is 2.5 µM; in the experiment on UO-31 renal it was 11.7 µM. Besides, the TGI with CCRF-CEM leukemia was 13.9 µM; with HCT-15 colon, 31.5 µM; in the experiment with SF-268 CNS it was 14.3 µM; in the experiment with SK-OV-3 ovarian, 7.23 µM; with SNB-75 CNS, 6.01 µM; in the experiment with SR leukemia, 4.87 µM. Besides, the TGI in the experiment on TK-10 renal was determined as 10.3 µM; in the experiment on UO-31 renal, 24.5 µM.

For `Fc1ccc(-c2ncn(CCCN3CCOCC3)c2-c2ccncc2)cc1`, the GI50 with CCRF-CEM leukemia, in the experiment on HCT-15 colon, in the experiment on SF-268 CNS, in the experiment with SK-OV-3 ovarian, in the experiment with SNB-75 CNS and in the experiment on SR leukemia was above 25 µM throughout. Further, the GI50 in the experiment on TK-10 renal and in the experiment with UO-31 renal was above 25 µM in each case. Also, the TGI with CCRF-CEM leukemia, in the experiment on HCT-15 colon, in the experiment on SF-268 CNS, with SK-OV-3 ovarian, with SNB-75 CNS and in the experiment on SR leukemia was above 25 µM in each case. Also, the TGI with TK-10 renal and with UO-31 renal was above 25 µM in each case.

As for `CCCS(=O)(=O)Nc1cccc(Nc2ncnc3cc(NC(=O)CCl)ccc23)c1Cl`, the GI50 was 1.03 µM in the experiment with CCRF-CEM leukemia; 1.6 µM with HCT-15 colon; 1.03 µM in the experiment with SF-268 CNS; 4 µM in the experiment with SK-OV-3 ovarian; 2.46 µM with SNB-75 CNS; 0.838 µM in the experiment with SR leukemia. Further, the GI50 in the experiment on TK-10 renal is 3.21 µM; in the experiment with UO-31 renal, 4.06 µM. Besides, the TGI in the experiment with CCRF-CEM leukemia is 4.68 µM; in the experiment on HCT-15 colon, 6.95 µM; with SF-268 CNS it was 4.62 µM; in the experiment with SK-OV-3 ovarian it was 8.16 µM; in the experiment with SNB-75 CNS, 5.72 µM; in the experiment with SR leukemia, 5.49 µM. Besides, the TGI in the experiment with TK-10 renal was 7 µM; in the experiment with UO-31 renal, 7.65 µM.

With `O=C1c2ccccc2C(=O)c2c1oc1c2c(=O)[nH]c2ccc(Cl)cc21`, the GI50 was 0.403 µM in the experiment with CCRF-CEM leukemia; 0.208 µM in the experiment on HCT-15 colon; 0.456 µM with SF-268 CNS; 0.348 µM in the experiment with SK-OV-3 ovarian; 0.16 µM with SNB-75 CNS; 0.496 µM in the experiment with SR leukemia. In addition, the GI50 is 0.379 µM in the experiment on TK-10 renal and 0.195 µM in the experiment with UO-31 renal. For the same molecule, the TGI worked out at 4.66 µM in the experiment with CCRF-CEM leukemia; 0.512 µM in the experiment on HCT-15 colon; 3.99 µM in the experiment with SF-268 CNS; 1.78 µM with SK-OV-3 ovarian; 0.418 µM with SNB-75 CNS; 3.94 µM with SR leukemia. Besides, the values for the TGI in the experiment on TK-10 renal and in the experiment with UO-31 renal were 1.1 µM and 0.605 µM, respectively.

As for `S=C1SCN(Cc2ccccc2)CN1Cc1ccccc1`, the GI50 is 1.15 µM in the experiment on CCRF-CEM leukemia; 4.13 µM in the experiment with HCT-15 colon; 9.55 µM in the experiment on SF-268 CNS; 98.7 µM with SK-OV-3 ovarian; 15.4 µM in the experiment on SNB-75 CNS; 0.303 µM in the experiment with SR leukemia. Besides, the values for the GI50 in the experiment on TK-10 renal and with UO-31 renal were 3.68 µM and 5.43 µM, respectively. Also, the TGI is 3.56 µM in the experiment with CCRF-CEM leukemia; 17.1 µM in the experiment on HCT-15 colon; above 37.6 µM with SF-268 CNS; above 100 µM in the experiment with SK-OV-3 ovarian; above 48.1 µM in the experiment on SNB-75 CNS; 3.02 µM with SR leukemia. Moreover, the TGI in the experiment with TK-10 renal came to 12.6 µM; in the experiment on UO-31 renal, 19 µM.
